In patent publication US20250066370A1, “BICYCLIC TRIAZINE DERIVATIVES FOR THE TREATMENT OF CANCER” (DEUTSCHES KREBSFORSCHUNGSZENTRUM, priority 2022, published 2025) one finds IC50 and DC50 data, which are given here for 15 compounds.

The structures appear in SMILES notation.

The target in one experiment is CDK9/CyclinT1 (Homo sapiens (Human), UniProt P50750). The experiment can be described thus: CDK9/CycT1 high ATP kinase assay (TR-FRET). The experiment is classed as biochemical. As to conditions: 2 mM ATP (high ATP); median; read-out: CDK9/CyclinT1, 2 mM ATP (high ATP), IC50 - [mol/l] (median). How it is done:
CDK9/CycT1-inhibitory activity of compounds of the present invention at a high ATP concentration after preincubation of enzyme and test compounds was quantified employing the CDK9/CycT1 TR-FRET assay as described in the following paragraphs.
Recombinant full-length His-tagged human CDK9 and CycT1, expressed in insect cells and purified by Ni-NTA affinity chromatography, were purchased from Life Technologies (Cat. No PV4131). As substrate for the kinase reaction biotinylated peptide biotin-Ttds-YISPLKSPYKISEG (C-terminus in amide form) was used which can be purchased e.g. form the company JERINI peptide technologies (Berlin, Germany).
For the assay 50 nanoL of a 100 fold concentrated solution of the test compound in DMSO was pipetted into either a black low volume 384 well microtiter plate or a black 1536 well microtiter plate (both Greiner Bio-One, Frickenhausen, Germany), 2 microL of a solution of CDK9/CycT1 in aqueous assay buffer [50 millimol/L Tris/HCl PH 8.0, 10 millimol/L MgCl2, 1.0 millimol/L dithiothreitol, 0.1 millimol/L sodium ortho-vanadate, 0.01% (v/v) Nonidet-P40 (Sigma)] were added and the mixture was incubated for 15 min at 22° C. to allow pre-binding of the test compounds to the enzyme before the start of the kinase reaction. Then the kinase reaction was started by the addition of 3 microL of a solution of adenosine-tri-phosphate (ATP, 3.3 millimol/L=>final conc. in the 5 microL assay volume is 2 millimol/L) and substrate (1.25 micromol/L=>final conc. in the 5 microL assay volume is 0.75 micromol/L) in assay buffer and the resulting mixture was incubated for a reaction time of 25 min at 22° C. The concentration of CDK9/CycT1 was adjusted depending of the activity of the enzyme lot and was chosen appropriate to have the assay in the linear range, typical concentrations were in the range of 0.5 microg/ml. The reaction was stopped by the addition of 3 microL of a solution of TR-FRET detection reagents (0.33 micromol/L streptavidine-XL665 [Cisbio Bioassays, Codolet, France] and 1.67 nanomol/L anti-RB (pSer807/pSer811)-antibody from BD Pharmingen [#558389] and 2 nanomol/L LANCE EU-W1024 labeled anti-mouse IgG antibody [Perkin-Elmer, product no. AD0077]) in an aqueous EDTA-solution (167 millimol/L EDTA, 0.2% (w/v) bovine serum albumin in 100 millimol/L HEPES pH 7.5).
The resulting mixture was incubated 1 h at 22° C. to allow the formation of complex between the phosphorylated biotinylated peptide and the detection reagents. Subsequently the amount of phosphorylated substrate was evaluated by measurement of the resonance energy transfer from the Eu-chelate to the streptavidine-XL. Therefore, the fluorescence emissions at 620 nm and 665 nm after excitation at 350 nm was measured in a TR-FRET reader, e.g. a Pherastar (BMG Labtechnologies, Offenburg, Germany) or a Viewlux (Perkin-Elmer). The ratio of the emissions at 665 nm and at […] was taken as the measure for the amount of phosphorylated substrate. The data were normalised (enzyme reaction without inhibitor=0% inhibition, all other assay components but no enzyme=100% inhibition).
For orientation: TR-FRET usually uses a lanthanide donor and a delayed reading to cut background.

Experiment [1] relates to BRCA1 mRNA expression in MDA-MB-231 cells. The experiment can be described thus: qRT-PCR assay: inhibition of BRCA1 mRNA expression in MDA-MB-231 cells. The conditions noted are these: Homo sapiens, 24 h exposure, BRCA1 normalised to GAPDH, median, read-out: RTqPCR-MDA-MB-231, IC50 [mol/l], BRCA1 (median). The experiment is classed as cell-based. How it is done: 3. qRT-PCR Assay: BRCA1, ATR, MCL1 in MDA-MB-231, CAL-120
Tissue cultured human MDA-MB-231 human breast cancer cells were plated in 500 microL per well at 200,000 cells/well in a 24 well microtiter plate. After 24 h, the cells were exposed continuously for 24 h to test substances (substances were added with Tecan HP D300 Dispenser). RNA was prepared using Qiagen RNeasy MiniKit (#74106), RNA was quantified using a NanoDrop Equipment, and 600 nano grams of RNA was converted to cDNA using a SuperScript VILO kit (Thermofisher #11755050) followed by qPCR amplification. BRCA1 and ATR gene expression was measured by RT-qPCR and normalised to GAPDH housekeeping gene expression. qPCR primer sets have been purchased from Thermo Fisher Scientific/Applied Biosystems: BRCA1, #Hs 01556193; ATR. #Hs 00992123: GAPDH. #Hs 03929097.
(In general: Real-time PCR tracks product formation cycle by cycle.)

In another experiment the target is CDK12 (Homo sapiens (Human), UniProt Q9NYV4). The experiment can be described thus: CDK12 nuclear protein level: immunofluorescence/high content analysis in CAL-120 cells. The experiment is classed as cell-based. As to conditions: 24 h, nuclear CDK12 staining intensity, median, read-out: CDK12 degradation IF, DC50 - [mol/l] (median). How it is done:
In the context of the present invention, the term “DC50 CDK12” refers to the DC50 values obtained according to the assay described in this section (7) herein below, i.e. the DC50 values for the degradation of CDK12.
CAL-120 human breast cancer cells (DSMZ ACC 459) are seeded in 1536-well microtiter plates (800 cells per well) containing 50 nanoL of compounds in Dose-Response. Control wells received DMSO or Example 4. Plates are then incubated for 24 h at 37° C. in an humidified incubator and fixed with 4% PFA for 10 min. Then immunofluorescence (IF) against CDK12 (CellSignalling CDK12 Antibody #11973, rabbit, 1:100 dilution) is performed using standard IF protocols. Cells are then stained with Hoechst 33342 (Life Technologies, H-1399, 0.1 microg/ml) and imaged on an automated confocal microscopy system (e.g. Perkin Elmer Opera Phenix). Nuclear and cytoplasmic intensity as well as the nuclear/cytoplasmic intensity ratio is determined by automated image analysis using custom generated scripts (MetaXpress). Data is then transferred to Genedata Screener software, normalized to DMSO and control and DC50 values (degrading concentration to achieve 50% reduction of nuclear CDK12 staining intensity relative to controls) are reported.

Sequence of CDK12 (Q9NYV4 whole entry): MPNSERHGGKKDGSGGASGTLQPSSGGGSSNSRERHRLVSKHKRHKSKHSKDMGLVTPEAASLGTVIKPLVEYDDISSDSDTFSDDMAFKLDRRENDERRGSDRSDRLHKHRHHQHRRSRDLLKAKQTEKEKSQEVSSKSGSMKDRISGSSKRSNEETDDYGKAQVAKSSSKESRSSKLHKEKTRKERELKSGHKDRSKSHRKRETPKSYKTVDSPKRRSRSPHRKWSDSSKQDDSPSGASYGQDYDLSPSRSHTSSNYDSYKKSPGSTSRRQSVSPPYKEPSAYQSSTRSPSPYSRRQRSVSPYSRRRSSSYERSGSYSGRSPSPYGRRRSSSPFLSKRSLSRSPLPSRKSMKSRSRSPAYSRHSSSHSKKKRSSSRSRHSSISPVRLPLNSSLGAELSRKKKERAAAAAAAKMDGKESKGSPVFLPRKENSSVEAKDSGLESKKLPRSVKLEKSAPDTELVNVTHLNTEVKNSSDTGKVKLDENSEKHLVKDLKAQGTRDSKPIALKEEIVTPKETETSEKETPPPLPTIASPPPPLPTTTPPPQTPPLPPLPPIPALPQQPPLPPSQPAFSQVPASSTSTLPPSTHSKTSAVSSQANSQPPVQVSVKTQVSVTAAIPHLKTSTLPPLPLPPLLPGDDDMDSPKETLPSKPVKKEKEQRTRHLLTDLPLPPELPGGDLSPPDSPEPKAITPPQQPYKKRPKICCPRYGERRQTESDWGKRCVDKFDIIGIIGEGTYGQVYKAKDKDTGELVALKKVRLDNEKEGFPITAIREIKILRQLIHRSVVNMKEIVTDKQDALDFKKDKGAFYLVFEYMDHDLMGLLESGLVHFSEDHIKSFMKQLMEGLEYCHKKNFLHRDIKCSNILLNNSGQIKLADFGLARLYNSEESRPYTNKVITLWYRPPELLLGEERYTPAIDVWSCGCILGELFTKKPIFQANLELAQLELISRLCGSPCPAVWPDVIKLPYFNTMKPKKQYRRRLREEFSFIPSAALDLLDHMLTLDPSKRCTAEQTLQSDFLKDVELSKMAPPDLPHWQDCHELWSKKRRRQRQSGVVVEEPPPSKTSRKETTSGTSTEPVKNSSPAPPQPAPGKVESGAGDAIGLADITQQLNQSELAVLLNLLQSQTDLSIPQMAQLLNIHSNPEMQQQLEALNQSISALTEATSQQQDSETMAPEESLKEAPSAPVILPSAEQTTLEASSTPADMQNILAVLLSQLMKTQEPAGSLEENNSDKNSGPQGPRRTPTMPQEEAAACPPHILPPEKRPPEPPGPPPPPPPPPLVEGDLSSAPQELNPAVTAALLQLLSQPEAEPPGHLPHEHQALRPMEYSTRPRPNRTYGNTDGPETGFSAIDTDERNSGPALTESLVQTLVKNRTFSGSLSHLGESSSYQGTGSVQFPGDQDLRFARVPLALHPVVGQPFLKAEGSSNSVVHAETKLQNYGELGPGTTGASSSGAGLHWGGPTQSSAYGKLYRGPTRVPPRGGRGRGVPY
Sequence of CDK12 (O75909 whole entry partner): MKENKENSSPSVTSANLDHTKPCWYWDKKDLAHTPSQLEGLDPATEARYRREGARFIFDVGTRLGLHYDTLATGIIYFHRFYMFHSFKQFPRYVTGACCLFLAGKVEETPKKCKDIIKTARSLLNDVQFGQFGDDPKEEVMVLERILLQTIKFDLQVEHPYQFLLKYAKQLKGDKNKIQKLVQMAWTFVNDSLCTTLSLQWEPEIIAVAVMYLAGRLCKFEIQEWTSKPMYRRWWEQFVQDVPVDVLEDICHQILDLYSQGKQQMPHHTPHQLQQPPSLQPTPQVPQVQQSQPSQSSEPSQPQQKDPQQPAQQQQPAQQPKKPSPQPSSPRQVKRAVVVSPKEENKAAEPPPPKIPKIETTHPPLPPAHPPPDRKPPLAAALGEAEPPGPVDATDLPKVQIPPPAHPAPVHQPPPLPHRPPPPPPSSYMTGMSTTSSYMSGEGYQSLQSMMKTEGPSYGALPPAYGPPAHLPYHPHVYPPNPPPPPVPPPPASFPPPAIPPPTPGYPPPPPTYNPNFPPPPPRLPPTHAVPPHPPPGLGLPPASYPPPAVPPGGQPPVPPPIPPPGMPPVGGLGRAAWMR
Sequence of CDK9/CyclinT1 (P50750 whole entry): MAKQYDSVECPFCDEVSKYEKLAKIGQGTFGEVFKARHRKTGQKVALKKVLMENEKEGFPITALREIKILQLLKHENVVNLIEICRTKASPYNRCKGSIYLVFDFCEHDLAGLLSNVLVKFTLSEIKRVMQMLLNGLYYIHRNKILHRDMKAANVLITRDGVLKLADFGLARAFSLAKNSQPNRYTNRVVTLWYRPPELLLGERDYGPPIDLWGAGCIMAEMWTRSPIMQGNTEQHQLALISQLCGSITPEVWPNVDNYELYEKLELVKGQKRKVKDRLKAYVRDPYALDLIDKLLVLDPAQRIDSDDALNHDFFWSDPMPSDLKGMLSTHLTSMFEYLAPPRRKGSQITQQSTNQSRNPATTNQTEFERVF
Sequence of CDK9/CyclinT1 (O60563 whole entry partner): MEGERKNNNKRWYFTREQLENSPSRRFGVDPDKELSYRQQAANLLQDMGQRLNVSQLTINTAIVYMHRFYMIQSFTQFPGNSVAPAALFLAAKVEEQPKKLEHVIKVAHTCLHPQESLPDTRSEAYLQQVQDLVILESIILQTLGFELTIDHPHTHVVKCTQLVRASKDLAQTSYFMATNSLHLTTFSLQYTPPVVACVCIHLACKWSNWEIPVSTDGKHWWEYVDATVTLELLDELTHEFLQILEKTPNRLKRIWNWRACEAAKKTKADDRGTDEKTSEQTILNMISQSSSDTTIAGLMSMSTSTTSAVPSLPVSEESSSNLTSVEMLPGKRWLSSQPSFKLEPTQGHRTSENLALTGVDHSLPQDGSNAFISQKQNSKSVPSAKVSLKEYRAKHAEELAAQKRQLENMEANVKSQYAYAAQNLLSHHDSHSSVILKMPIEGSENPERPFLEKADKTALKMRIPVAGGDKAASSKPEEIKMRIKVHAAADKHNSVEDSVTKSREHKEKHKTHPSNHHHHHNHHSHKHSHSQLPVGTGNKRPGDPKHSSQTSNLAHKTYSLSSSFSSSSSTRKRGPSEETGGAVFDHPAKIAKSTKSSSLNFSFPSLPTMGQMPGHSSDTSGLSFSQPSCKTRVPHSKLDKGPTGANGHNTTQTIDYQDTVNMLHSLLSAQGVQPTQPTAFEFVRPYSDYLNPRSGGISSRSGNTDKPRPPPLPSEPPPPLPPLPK

`FC(F)(F)c1ccc(-c2nnc(CNc3nc(N4CCOCC4)nc4c(Br)cnn34)[nH]2)cc1` [Example 1, 8-bromo-2-(morpholin-4-yl)-N-({5-[4-(trifluoromethyl)phenyl]-4H-1,2,4-triazol-3-yl}methyl)pyrazolo[1,5-a][1,3,5]triazin-4-amine]: the IC50 on CDK9/CyclinT1 is 4.58 µM; in experiment [1] it was 0.514 µM. The DC50 on CDK12 was found to be 2.38 µM.
Taken in the same sequence, the figures for `FC(F)(F)Oc1ccc(-c2nnc(CNc3nc(N4CCOCC4)nc4c(Br)cnn34)[nH]2)cc1` [Example 2, 8-bromo-2-(morpholin-4-yl)-N-({5-[4-(trifluoromethoxy)phenyl]-4H-1,2,4-triazol-3-yl}methyl)pyrazolo[1,5-a][1,3,5]triazin-4-amine] were 6.35 µM, 0.272 µM and > 2.79 µM.
Regarding `FC(F)(F)c1ccc(-c2cnc(CNc3nc(N4CCOCC4)nc4c(Br)cnn34)[nH]2)cc1` [Example 3, 8-bromo-2-(morpholin-4-yl)-N-({5-[4-(trifluoromethyl)phenyl]-1H-imidazol-2-yl}methyl)pyrazolo[1,5-a][1,3,5]triazin-4-amine], the IC50 at CDK9/CyclinT1 came out at 15.4 µM. The DC50 at CDK12 is > 2.88 µM.
Take `FC(F)(F)Oc1ccc(-c2cnc(CNc3nc(N4CCOCC4)nc4c(Br)cnn34)[nH]2)cc1` [Example 4, 8-bromo-2-(morpholin-4-yl)-N-({5-[4-(trifluoromethoxy)phenyl]-1H-imidazol-2-yl}methyl)pyrazolo[1,5-a][1,3,5]triazin-4-amine]: the IC50 is > 20 µM at CDK9/CyclinT1 and 0.00694 µM in experiment [1]. Moreover, the DC50 at CDK12 was > 1 µM.
Taken in the same sequence, the figures for `FC(F)(F)Oc1ccc(-c2nnc(CNc3nc(N4CCOCC4)nc4c(C(F)(F)F)cnn34)[nH]2)cc1` [Example 5, 2-(morpholin-4-yl)-N-({5-[4-(trifluoromethoxy)phenyl]-4H-1,2,4-triazol-3-yl}methyl)-8-(trifluoromethyl)pyrazolo[1,5-a][1,3,5]triazin-4-amine] were 17.8 µM, 0.109 µM and 1 µM.
Regarding `FC(F)(F)c1ccc(-c2nnc(CNc3nc(N4CCOCC4)nc4c(C(F)(F)F)cnn34)[nH]2)cc1` [Example 6, 2-(morpholin-4-yl)-8-(trifluoromethyl)-N-({5-[4-(trifluoromethyl)phenyl]-4H-1,2,4-triazol-3-yl}methyl)pyrazolo[1,5-a][1,3,5]triazin-4-amine], on CDK9/CyclinT1, the IC50 was > 20 µM. Also, the DC50 at CDK12 is 1 µM.
`FC(F)(F)c1ccc(-c2cnc(CNc3nc(N4CCOCC4)nn4c(C(F)(F)F)cnc34)[nH]2)cc1` [Example 7, 2-(morpholin-4-yl)-7-(trifluoromethyl)-N-({5-[4-(trifluoromethyl)phenyl]-1H-imidazol-2-yl}methyl)imidazo[2,1-f][1,2,4]triazin-4-amine]: the IC50 at CDK9/CyclinT1 is > 20 µM. Besides, the DC50 at CDK12 stood at 0.671 µM.
As to `FC(F)(F)Oc1ccc(-c2cnc(CNc3nc(N4CCOCC4)nn4c(C(F)(F)F)cnc34)[nH]2)cc1` [Example 8, 2-(morpholin-4-yl)-N-({5-[4-(trifluoromethoxy)phenyl]-1H-imidazol-2-yl}methyl)-7-(trifluoromethyl)imidazo[2,1-f][1,2,4]triazin-4-amine], the results for the IC50 (at CDK9/CyclinT1; in experiment [1]) were > 20 µM and 0.0382 µM, respectively. Moreover, the DC50 on CDK12 was 0.893 µM.
For the compound `FC(F)(F)c1ccc(-c2nnc(CNc3nc(N4CCOCC4)nn4c(C(F)(F)F)cnc34)[nH]2)cc1` [Example 11, 2-(morpholin-4-yl)-7-(trifluoromethyl)-N-({5-[4-(trifluoromethyl)phenyl]-4H-1,2,4-triazol-3-yl}methyl)imidazo[2,1-f][1,2,4]triazin-4-amine], the IC50 on CDK9/CyclinT1 is > 20 µM. The DC50 at CDK12 is 0.92 µM.
With `FC(F)(F)Oc1ccc(-c2nnc(CNc3nc(N4CCOCC4)nn4c(C(F)(F)F)cnc34)[nH]2)cc1` [Example 14, 2-(morpholin-4-yl)-N-({5-[4-(trifluoromethoxy)phenyl]-4H-1,2,4-triazol-3-yl}methyl)-7-(trifluoromethyl)imidazo[2,1-f][1,2,4]triazin-4-amine], the IC50 on CDK9/CyclinT1 was > 20 µM. The DC50 on CDK12 worked out at 0.665 µM.
On to `COc1ccc(-c2nnc(CNc3nc(N4CCOCC4)nc4c(C(F)(F)F)cnn34)[nH]2)cn1` [Example 15, N-{[5-(6-methoxypyridin-3-yl)-4H-1,2,4-triazol-3-yl]methyl}-2-(morpholin-4-yl)-8-(trifluoromethyl)pyrazolo[1,5-a][1,3,5]triazin-4-amine], for which the DC50 at CDK12 is > 1 µM.
On to `COc1ccc(-c2nnc(CNc3nc(N4CCOCC4)nn4c(C(F)(F)F)cnc34)[nH]2)cn1` [Example 18, N-{[5-(6-methoxypyridin-3-yl)-4H-1,2,4-triazol-3-yl]methyl}-2-(morpholin-4-yl)-7-(trifluoromethyl)imidazo[2,1-f][1,2,4]triazin-4-amine], for which the IC50 in experiment [1] was determined as 0.0715 µM. Also, the DC50 on CDK12 was > 1 µM.
As for `FC(F)(F)Oc1ccc(-c2nnc(CNc3nc(N4CCOCC4)nn4c(C(F)(F)F)cnc34)[nH]2)cn1` [Example 19, 2-(morpholin-4-yl)-N-({5-[6-(trifluoromethoxy)pyridin-3-yl]-4H-1,2,4-triazol-3-yl}methyl)-7-(trifluoromethyl)imidazo[2,1-f][1,2,4]triazin-4-amine], the IC50 is 0.506 µM at CDK9/CyclinT1 and 0.0345 µM in experiment [1].
Take `Cc1ccc(-c2nnc(CNc3nc(N4CCOCC4)nc4c(C(F)(F)F)cnn34)[nH]2)cn1` [Example 22, N-{[5-(6-methylpyridin-3-yl)-4H-1,2,4-triazol-3-yl]methyl}-2-(morpholin-4-yl)-8-(trifluoromethyl)pyrazolo[1,5-a][1,3,5]triazin-4-amine]: at CDK9/CyclinT1, the IC50 is 1.89 µM. Moreover, the DC50 at CDK12 was > 1 µM.
In the case of `FC(F)(F)c1ccc(-c2cnc(CNc3nc(N4CCOCC4)nc4c(C(F)(F)F)cnn34)[nH]2)cn1` [Example 24, 2-(morpholin-4-yl)-8-(trifluoromethyl)-N-({5-[6-(trifluoromethyl)pyridin-3-yl]-1H-imidazol-2-yl}methyl)pyrazolo[1,5-a][1,3,5]triazin-4-amine], the IC50 in experiment [1] was 0.0295 µM. The DC50 on CDK12 was > 1 µM.
